# Experimental data taken from patent publication US10179107B2, “Tablet containing dehydroepiandrosterone (DHEA)” (PANTARHEI BIOSCIENCE B.V., priority 2011, dated 2019).
# Assay: Daily oral administration of DHEA to female users of hormonal oral contraceptives
# Type: in vivo, human
# Conditions: daily oral dosage of around 50 mg
# Text: DHEA can be administered by different routes. Unlike various other known androgens, DHEA is orally active. […] Apart from the ability of DHEA to restore and normalize androgen levels, important significant clinical benefits have been observed on several aspects of sexual function (arousability, responsivity, genital sensation, lubrication), mood and menstrual distress symptoms.
compound,measurement,value
"C[C@]12CC[C@H](O)CC1=CC[C@@H]1[C@@H]2CC[C@]2(C)C(=O)CC[C@@H]12 [DHEA, 3-beta-hydroxyandrost-5-en-17-one]",estradiol levels,without increasing estradiol levels
same,excessively high testosterone levels or clinical symptoms of hyperandrogenicity,without causing excessively high testosterone levels or clinical symptoms of hyperandrogenicity
same,normalization of free testosterone,at least 50%
same,normalization of total testosterone,normalizes total testosterone completely
